Test results published in patent US10202339B2, “Therapeutic compounds and compositions” (AGIOS PHARMACEUTICALS, INC., priority 2012, dated 2019).

Molecular target: IDH2 R140Q (Homo sapiens (Human), UniProt P48735, R140Q)
Experiment: IDH2 R140Q enzymatic cofactor depletion assay (diaphorase/resazurin)
Format: biochemical
Conditions: IDH2 R140Q enzyme, one hour preincubation with compound, one hour reaction; read-out: Enz R140Q
Protocol: The reaction was terminated by the addition of a second enzyme, diaphorase, and a corresponding substrate, resazurin. Diaphorase reduces resazurin to the highly fluorescent resorufin with the concomitant oxidation of NADPH to NADP, both halting the IDH2 reaction by depleting the available cofactor pool and facilitating quantitation of the amount of cofactor remaining after a specific time period through quantitative production of an easily detected fluorophore.
The compound was then incubated for one hour at room temperature with the enzyme; before starting the IDH2 reaction with the addition of 10 μl of substrate mix containing 50 μM NADPH and 6.3 mM α-KG in the buffer described above. After a further one hour of incubation at room temperature, the reaction was halted and the remaining NADPH measured through conversion of resazurin to resorufin by the addition of 25 μl Stop Mix (36 μg/ml diaphorase enzyme and 60 μM resazurin; in buffer). After one minute of incubation the plate was read on a plate reader at Ex544/Em590.

IDH2 R140Q, sequence (P48735 40-452 R140Q): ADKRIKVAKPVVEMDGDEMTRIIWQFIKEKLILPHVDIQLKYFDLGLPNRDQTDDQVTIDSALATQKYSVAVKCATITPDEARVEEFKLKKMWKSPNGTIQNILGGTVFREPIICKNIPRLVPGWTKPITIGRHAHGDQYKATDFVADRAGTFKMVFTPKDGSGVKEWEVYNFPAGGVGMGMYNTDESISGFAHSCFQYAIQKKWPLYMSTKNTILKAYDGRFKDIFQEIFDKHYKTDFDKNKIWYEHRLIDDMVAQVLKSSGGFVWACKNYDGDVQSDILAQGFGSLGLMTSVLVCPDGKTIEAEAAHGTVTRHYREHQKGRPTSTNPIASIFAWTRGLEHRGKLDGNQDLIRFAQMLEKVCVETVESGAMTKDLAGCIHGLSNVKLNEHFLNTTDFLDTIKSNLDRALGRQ

Compound	IC50 [µM]
O=C(Nc1cccc(C(F)(F)F)c1)Nc1cc(S(=O)(=O)Nc2ccccc2)ccc1-c1ccccc1F [Compound 63]	1 to 10
3′-methyl-N-morpholino-2-(3-(3-(trifluoromethyl)phenyl)ureido)-[1,1′-biphenyl]-4-sulfonamide [Compound 49]	0.1 to 1
O=C(Nc1ccc(F)c(Cl)c1)Nc1cc(S(=O)(=O)NCC(F)(F)F)ccc1-c1ccccc1 [Compound 40, 2-(3-(3-chloro-4-fluorophenyl)ureido)-N-(2,2,2-trifluoroethyl)-[1,1′-biphenyl]-4-sulfonamide]	0.1 to 1
CC(C)N(C)c1ccc(S(=O)(=O)Nc2ccccc2)cc1NC(=O)Nc1cccc(C(F)(F)F)c1 [Compound 347]	1 to 10
O=C(Nc1cccc(C(F)(F)F)c1)Nc1cc(S(=O)(=O)NCC(F)(F)F)ccc1OCC1CC1 [Compound 175, 4-(cyclopropylmethoxy)-N-(2,2,2-trifluoroethyl)-3-(3-(3-(trifluoromethyl)phenyl)ureido)benzenesulfonamide]	0.1 to 1
CC1(NS(=O)(=O)c2ccc(-c3ccsc3)c(NC(=O)Nc3cccc(C(F)(F)F)c3)c2)CC1 [Compound 151, N-(1-methylcyclopropyl)-4-(thiophen-3-yl)-3-(3-(3-(trifluoromethyl)phenyl)ureido)benzenesulfonamide]	0.1 to 1
CCONS(=O)(=O)c1ccc(-c2ccsc2)c(NC(=O)Nc2cccc(C(F)(F)F)c2)c1 [Compound 139, N-ethoxy-4-(thiophen-3-yl)-3-(3-(3-(trifluoromethyl)phenyl)ureido)benzenesulfonamide]	0.1 to 1
O=C(Nc1cc(Cl)ccc1F)Nc1cc(S(=O)(=O)NCC(F)(F)F)ccc1-c1ccccc1 [Compound 74, 2-(3-(5-chloro-2-fluorophenyl)ureido)-N-(2,2,2-trifluoroethyl)-[1,1′-biphenyl]-4-sulfonamide]	0.1 to 1
O=C(Nc1ccccc1Cl)Nc1cc(S(=O)(=O)NCC(F)(F)F)ccc1-c1ccccc1 [Compound 42, 2-(3-(2-chlorophenyl)ureido)-N-(2,2,2-trifluoroethyl)-[1,1′-biphenyl]-4-sulfonamide]	0.1 to 1
Cc1cc(NC(=O)Nc2cc(S(=O)(=O)NCC(F)(F)F)ccc2-c2ccccc2)n(C)n1 [Compound 96]	1 to 10
O=C(Nc1cc(S(=O)(=O)NCC(F)(F)F)ccc1-c1ccccc1)Nc1ccc(F)cc1C(F)(F)F [Compound 76, 2-(3-(4-fluoro-2-(trifluoromethyl)phenyl)ureido)-N-(2,2,2-trifluoroethyl)-[1,1′-biphenyl]-4-sulfonamide]	0.1 to 1
O=C(Nc1nccc(Cl)n1)Nc1cc(S(=O)(=O)NCC(F)(F)F)ccc1-c1ccccc1 [Compound 105, 2-(3-(4-chloropyrimidin-2-yl)ureido)-N-(2,2,2-trifluoroethyl)-[1,1′-biphenyl]-4-sulfonamide]	0.1 to 1
O=C(Nc1nc(C(F)(F)F)cs1)Nc1cc(S(=O)(=O)NCC(F)(F)F)ccc1-c1ccccc1 [Compound 103, N-(2,2,2-trifluoroethyl)-2-(3-(4-(trifluoromethyl)thiazol-2-yl)ureido)-[1,1′-biphenyl]-4-sulfonamide]	0.1 to 1
O=C(Nc1cc(C(F)(F)F)ccn1)Nc1cc(S(=O)(=O)NCC(F)(F)F)ccc1-c1cccnc1 [Compound 65]	1 to 10
O=C(Nc1ncc(Cl)s1)Nc1cc(S(=O)(=O)NCC(F)(F)F)ccc1OCC1CC1 [Compound 187, 3-(3-(5-chlorothiazol-2-yl)ureido)-4-(cyclopropylmethoxy)-N-(2,2,2-trifluoroethyl)benzenesulfonamide]	0.1 to 1
O=C(Nc1cccc(C(F)(F)F)c1)Nc1cc(S(=O)(=O)Nc2ccc(O)cc2)ccc1-c1ccsc1 [Compound 146, N-(4-hydroxyphenyl)-4-(thiophen-3-yl)-3-(3-(3-(trifluoromethyl)phenyl)ureido)benzenesulfonamide]	1 to 10
O=C(Nc1cccc(C(F)(F)F)c1)Nc1cc(S(=O)(=O)NCc2ccccc2)ccc1-c1ccsc1 [Compound 136, N-benzyl-4-(thiophen-3-yl)-3-(3-(3-(trifluoromethyl)phenyl)ureido)benzenesulfonamide]	0.1 to 1
O=C(Nc1cccc(Cl)c1)Nc1cc(S(=O)(=O)NCC(F)(F)F)ccc1C1CCCCO1 (stereo not drawn) [Compound 168, 3-(3-(3-chlorophenyl)ureido)-4-(tetrahydro-2H-pyran-2-yl)-N-(2,2,2-trifluoroethyl)benzenesulfonamide]	0.1 to 1
Cc1coc(NC(=O)Nc2cc(S(=O)(=O)NCC(F)(F)F)ccc2-c2ccccc2)n1 [Compound 102, 2-(3-(4-methyloxazol-2-yl)ureido)-N-(2,2,2-trifluoroethyl)-[1,1′-biphenyl]-4-sulfonamide]	0.1 to 1
O=C(Nc1cccc(C(F)(F)F)c1)Nc1cc(S(=O)(=O)N2CCOCC2)ccc1N1CCOCC1 [Compound 350]	1 to 10

Compound	IC50 [µM]
O=C(Nc1ccc(F)c(C(F)(F)F)c1)Nc1cc(S(=O)(=O)NCC2CC2)ccc1C1CCCCO1 (stereo not drawn) [Compound 164, N-(cyclopropylmethyl)-3-(3-(4-fluoro-3-(trifluoromethyl)phenyl)ureido)-4-(tetrahydro-2H-pyran-2-yl)benzenesulfonamide]	0.1 to 1
CC(C)CNS(=O)(=O)c1ccc(-c2ccsc2)c(NC(=O)Nc2cccc(C(F)(F)F)c2)c1 [Compound 116, N-isobutyl-4-(thiophen-3-yl)-3-(3-(3-(trifluoromethyl)phenyl)ureido)benzenesulfonamide]	0.1 to 1
O=C(Nc1cc(C(F)(F)F)ccn1)Nc1cc(S(=O)(=O)NCC(F)(F)F)ccc1-c1ccccc1 [Compound 87, N-(2,2,2-trifluoroethyl)-2-(3-(4-(trifluoromethyl)pyridin-2-yl)ureido)-[1,1′-biphenyl]-4-sulfonamide]	0.1 to 1
O=C(Nc1cccc(C(F)(F)F)c1)Nc1cc(S(=O)(=O)NCC(F)(F)F)ccc1-c1ccsc1 [Compound 130, 4-(thiophen-3-yl)-N-(2,2,2-trifluoroethyl)-3-(3-(3-(trifluoromethyl)phenyl)ureido)benzenesulfonamide]	0.1 to 1
N#CC1(NS(=O)(=O)c2cnc(OCC3CC3)c(NC(=O)Nc3cccc(C(F)(F)F)c3)c2)CC1 [Compound 200, N-(1-cyanocyclopropyl)-6-(cyclopropylmethoxy)-5-(3-(3-(trifluoromethyl)phenyl)ureido)pyridine-3-sulfonamide]	1 to 10
O=C(Nc1cc(S(=O)(=O)NCC(F)(F)F)ccc1-c1ccccc1)Nc1ccncc1C(F)(F)F [Compound 78, N-(2,2,2-trifluoroethyl)-2-(3-(3-(trifluoromethyl)pyridin-4-yl)ureido)-[1,1′-biphenyl]-4-sulfonamide]	0.1 to 1
Cc1cccc(C)c1NC(=O)Nc1cc(S(=O)(=O)Nc2ccccc2)ccc1-c1ccsc1 [Compound 15]	1 to 10
N#CC1(NS(=O)(=O)c2ccc(OCC3CC3)c(NC(=O)Nc3cccc(C(F)(F)F)c3)c2)CC1 [Compound 179, N-(1-cyanocyclopropyl)-4-(cyclopropylmethoxy)-3-(3-(3-(trifluoromethyl)phenyl)ureido)benzene sulfonamide]	0.1 to 1
Cc1ccnc(NC(=O)Nc2cc(S(=O)(=O)NCC(F)(F)F)ccc2-c2ccccc2)n1 [Compound 107, 2-(3-(4-methylpyrimidin-2-yl)ureido)-N-(2,2,2-trifluoroethyl)-[1,1′-biphenyl]-4-sulfonamide]	1 to 10
O=C(Nc1ccc(F)cc1)Nc1cc(S(=O)(=O)NC2CC2)ccc1-c1ccccc1 [Compound 53]	1 to 10
O=C(Nc1cc(F)cc(F)c1)Nc1cc(S(=O)(=O)NCC(F)(F)F)ccc1-c1ccccc1 [Compound 89, 2-(3-(3,5-difluorophenyl)ureido)-N-(2,2,2-trifluoroethyl)-[1,1′-biphenyl]-4-sulfonamide]	0.1 to 1
CCc1ccccc1NC(=O)Nc1cc(S(=O)(=O)Nc2ccccc2)ccc1-c1ccsc1 [Compound 4, 3-(3-(2-ethylphenyl)ureido)-N-phenyl-4-(thiophen-3-yl)benzenesulfonamide]	0.1 to 1
CCOc1ncc(S(=O)(=O)NCC(F)(F)F)cc1NC(=O)Nc1cc(C(F)(F)F)ccn1 [Compound 202, 6-ethoxy-N-(2,2,2-trifluoroethyl)-5-(3-(4-(trifluoromethyl)pyridine-2-yl)ureido)pyridine-3-sulfonamide]	0.1 to 1
O=C(Nc1cccc(C(F)(F)F)c1)Nc1cc(S(=O)(=O)NC2CC2)cnc1N1CCCOCC1 [Compound 358]	0.1 to 1
CC1CCC(NC(=O)Nc2cc(S(=O)(=O)Nc3ccccc3)ccc2-c2ccsc2)CC1 (stereo not drawn) [Compound 24]	1 to 10
O=C(Nc1cccc(C(F)(F)F)c1)Nc1cc(S(=O)(=O)NCC2CCC2)ccc1-c1ccsc1 [Compound 128, N-(cyclobutylmethyl)-4-(thiophen-3-yl)-3-(3-(3-(trifluoromethyl)phenyl)ureido)benzenesulfonamide]	0.1 to 1
O=C(Nc1cccc(C(F)(F)F)c1)Nc1cc(S(=O)(=O)NC2CC2)ccc1N1CCOCC1 [Compound 348, N-cyclopropyl-4-morpholino-3-(3-(3-(trifluoromethyl)phenyl)ureido)benzenesulfonamide]	1 to 10
O=C(Nc1ccccc1Cl)Nc1cc(S(=O)(=O)NC2CC2)ccc1-c1ccsc1 [Compound 25, 3-(3-(2-chlorophenyl)ureido)-N-cyclopropyl-4-(thiophen-3-yl)benzenesulfonamide]	0.1 to 1
O=C(Nc1ccccc1F)Nc1cc(S(=O)(=O)NCC(F)(F)F)ccc1-c1ccccc1 [Compound 33, 2-(3-(2-fluorophenyl)ureido)-N-(2,2,2-trifluoroethyl)-[1,1′-biphenyl]-4-sulfonamide]	0.1 to 1
